Data: patent US6355799B1, “Substituted benzene compounds, process for their preparation, and herbicidal and defoliant compositions containing them” (ISK Americas Incorporated, priority 1997, dated 2002)

Experiments:
Format in all cases: in vivo
[1] = test system: ivyleaf morningglory (Ipomoea hederacea, IPOHE); assay: Pre-emerge test, greenhouse herbicide activity screening; conditions: pre-emerge, 14 days after application, scale 0-100
How it was run: (§1)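 Sandy loam pots; pre-emerge: sown 1 d pre-spray, surface-watered after, then bottom-watered. Post-emerge: sown 8–21 d before, 2–3 leaf stage, + 0.25% v/v NIS, bottom-watered. Acetone, 187 l/ha track spray, 15–1000 g ai/ha. 0–100 injury score, day 14.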

[2] = test system: large crabgrass (Digitaria sanguinalis, DIGSA); assay: as above; conditions: pre-emerge, 14 days after application, scale 0-100
How it was run: as §1

[3] = test system: barnyardgrass (Echinochloa crus-galli, ECHCG); assay: as above; conditions: pre-emerge, 14 days after application, scale 0-100
How it was run: as §1

[4] = test system: green foxtail (Setaria viridis, SETVI); assay: as above; conditions: pre-emerge, 14 days after application, scale 0-100
How it was run: as §1

[5] = test system: johnsongrass (Sorghum halepense, SORHA); assay: as above; conditions: pre-emerge, 14 days after application, scale 0-100
How it was run: as §1

[6] = test system: velvetleaf (Abutilon theophrasti, ABUTH); assay: as above; conditions: pre-emerge, 14 days after application, scale 0-100
How it was run: as §1

[7] = test system: sicklepod (Cassia obtusifolia, CASOB); assay: as above; conditions: pre-emerge, 14 days after application, scale 0-100
How it was run: as §1

[8] = test system: lambsquarters (Chenopodium album, CHEAL); assay: as above; conditions: pre-emerge, 14 days after application, scale 0-100
How it was run: as §1

[9] = test system: field corn (Zea mays L., var. Dekalb 535, CORN); assay: Pre-emerge test, crop safety; conditions: pre-emerge, 14 days after application, scale 0-100
How it was run: (§2)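 Applied at 15–1000 g ai/ha from acetone in 187 l/ha spray volume. Post-emergence applications included 0.25% v/v non-ionic surfactant and reached plants sown 8–21 days before. Pre-emergence applications were incorporated by surface watering. Efficacy or crop damage was rated on a 0–100 scale after 14 days.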

[10] = test system: upland rice (Oryza sp., var. Tebonnet, RICE); assay: Pre-emerge test, crop safety; conditions: pre-emerge, 14 days after application, scale 0-100
How it was run: as §2

[11] = test system: redroot pigweed (Amaranthus retroflexus, AMARE); assay: Pre-emerge test, greenhouse herbicide activity screening; conditions: pre-emerge, 14 days after application, scale 0-100
How it was run: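 Plants grown in 10 cm pots of sandy loam mix received acetone-dissolved compounds through a moving flat-fan nozzle. Doses ranged from 15 to 1000 g ai/ha. Pre-emerge pots were seeded one day earlier, post-emerge pots 8–21 days earlier. Fourteen days on, each pot was graded 0–100 for damage.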

[12] = test system: ivyleaf morningglory (Ipomoea hederacea, IPOHE); assay: Post-emerge test, greenhouse herbicide activity screening; conditions: post-emerge, 14 days after application, rating scale 0-100
How it was run: (§3)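 Rating: 0–100 visual injury, 14 DAA. Application: acetone, 187 l/ha, 15–1000 g ai/ha, flat-fan track sprayer with nozzle 40–45 cm above soil or canopy. Post-emerge runs used 0.25% v/v surfactant on 2–3 leaf plants.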

[13] = test system: common ragweed (Ambrosia artemisizfolia L., AMBEL); assay: as above; conditions: post-emerge, 14 days after application, rating scale 0-100
How it was run: as §3

[14] = test system: large crabgrass (Digitaria sanguinalis, DIGSA); assay: as above; conditions: post-emerge, 14 days after application, rating scale 0-100
How it was run: as §3

[15] = test system: barnyardgrass (Echinochloa crus-galli, ECHCG); assay: as above; conditions: post-emerge, 14 days after application, rating scale 0-100
How it was run: as §3

[16] = test system: green foxtail (Setaria viridis, SETVI); assay: as above; conditions: post-emerge, 14 days after application, rating scale 0-100
How it was run: as §3

[17] = test system: johnsongrass (Sorghum halepense, SORHA); assay: as above; conditions: post-emerge, 14 days after application, rating scale 0-100
How it was run: as §3

[18] = test system: velvetleaf (Abutilon theophrasti, ABUTH); assay: as above; conditions: post-emerge, 14 days after application, rating scale 0-100
How it was run: as §3

[19] = test system: sicklepod (Cassia obtusifolia, CASOB); assay: as above; conditions: post-emerge, 14 days after application, rating scale 0-100
How it was run: as §3

[20] = test system: redroot pigweed (Amaranthus retroflexus, AMARE); assay: as above; conditions: post-emerge, 14 days after application, rating scale 0-100
How it was run: as §3

[21] = test system: lambsquarters (Chenopodium album, CHEAL); assay: as above; conditions: post-emerge, 14 days after application, rating scale 0-100
How it was run: as §3

[22] = test system: field corn (Zea mays L., var. Dekalb 535, CORN); assay: Post-emerge test, crop safety; conditions: post-emerge, 14 days after application, rating scale 0-100
How it was run: as §1

[23] = test system: upland rice (Oryza sp., var. Tebonnet, RICE); assay: Post-emerge test, crop safety; conditions: post-emerge, 14 days after application, rating scale 0-100
How it was run: as §1

With `COc1c(Cl)cc(F)c(-n2c(=O)cc(C(F)(F)F)n(C)c2=O)c1NC(=O)c1ccc2c(Br)cccc2c1` [2-158] the “phytotoxicity rating IPOHE” value ([1]; 63 g ai/ha) was 0, the “phytotoxicity rating IPOHE” value ([1]; 250 g ai/ha) was 0 and the “phytotoxicity rating DIGSA” value ([2]; 63 g ai/ha) was 80. For the same compound, the “phytotoxicity rating DIGSA” value ([2]; 250 g ai/ha) was 95, the “phytotoxicity rating ECHCG” value ([3]; 63 g ai/ha) was 50 and the “phytotoxicity rating ECHCG” value ([3]; 250 g ai/ha) was 80. For the same compound, the “phytotoxicity rating SETVI” value ([4]; 63 g ai/ha) was 0, the “phytotoxicity rating SETVI” value ([4]; 250 g ai/ha) was 95 and the “phytotoxicity rating SORHA” value ([5]; 63 g ai/ha) was 0. For the same compound, the “phytotoxicity rating SORHA” value ([5]; 250 g ai/ha) was 20, the “phytotoxicity rating ABUTH” value ([6]; 63 g ai/ha) was 80 and the “phytotoxicity rating ABUTH” value ([6]; 250 g ai/ha) was 95. For the same compound, the “phytotoxicity rating CASOB” value ([7]; 63 g ai/ha) was 0, the “phytotoxicity rating CASOB” value ([7]; 250 g ai/ha) was 0 and the “phytotoxicity rating CHEAL” value ([8]; 63 g ai/ha) was 100. The “phytotoxicity rating CHEAL” value ([8]; 250 g ai/ha) was 100, the “phytotoxicity rating CORN (crop damage)” value ([9]; 63 g ai/ha) was 0 and the “phytotoxicity rating CORN (crop damage)” value ([9]; 250 g ai/ha) was 0. The “phytotoxicity rating RICE (crop damage)” value ([10]; 63 g ai/ha) was 0, the “phytotoxicity rating RICE (crop damage)” value ([10]; 250 g ai/ha) was 10 and the “phytotoxicity rating AMARE” value ([11]; 63 g ai/ha) was 100. For the same compound, the “phytotoxicity rating AMARE” value ([11]; 250 g ai/ha) was 100, the IPOHE phytotoxicity rating ([12]; 63 g ai/ha) was 20 and the IPOHE phytotoxicity rating ([12]; 250 g ai/ha) was 80. The AMBEL phytotoxicity rating ([13]; 63 g ai/ha) was 50, the AMBEL phytotoxicity rating ([13]; 250 g ai/ha) was 100 and the DIGSA phytotoxicity rating ([14]; 63 g ai/ha) was 0. For the same compound, the DIGSA phytotoxicity rating ([14]; 250 g ai/ha) was 30, the ECHCG phytotoxicity rating ([15]; 63 g ai/ha) was 0 and the ECHCG phytotoxicity rating ([15]; 250 g ai/ha) was 50. It also gave an SETVI phytotoxicity rating ([16]; 63 g ai/ha) of 10, an SETVI phytotoxicity rating ([16]; 250 g ai/ha) of 70 and an SORHA phytotoxicity rating ([17]; 63 g ai/ha) of 0. For the same compound, the SORHA phytotoxicity rating ([17]; 250 g ai/ha) was 0, the ABUTH phytotoxicity rating ([18]; 63 g ai/ha) was 95 and the ABUTH phytotoxicity rating ([18]; 250 g ai/ha) was 100. The CASOB phytotoxicity rating ([19]; 63 g ai/ha) was 90, the CASOB phytotoxicity rating ([19]; 250 g ai/ha) was 100 and the AMARE phytotoxicity rating ([20]; 63 g ai/ha) was 100. For the same compound, the AMARE phytotoxicity rating ([20]; 250 g ai/ha) was 100, the CHEAL phytotoxicity rating ([21]; 63 g ai/ha) was 90 and the CHEAL phytotoxicity rating ([21]; 250 g ai/ha) was 95. For the same compound, the “CORN phytotoxicity rating (crop damage)” value ([22]; 63 g ai/ha) was 0, the “CORN phytotoxicity rating (crop damage)” value ([22]; 250 g ai/ha) was 0 and the “RICE phytotoxicity rating (crop damage)” value ([23]; 63 g ai/ha) was 20. For the same compound, the “RICE phytotoxicity rating (crop damage)” value ([23]; 250 g ai/ha) was 60.
